{"source": "patent US20210395327A1", "about": "“Growth Hormone-Releasing Hormone Antagonists and Uses Thereof” (United States Government As Represented By The Department …, priority 2019, published 2021)", "key": {"[1]": {"test_system": "cellular levels of oxidant stress", "details": "Barbutis and Schally 2008; cited from earlier work"}, "[2]": {"test_system": "PAK1-STAT3/NF-κB in gastric cancer cells", "details": "Gan et al. 2016; cited from earlier work"}, "[3]": {"test_system": "bleomycin-induced lung fibrosis (lung hydroxyproline content)", "assay": "Bleomycin mouse model, lung hydroxyproline assay", "assay_type": "in vivo, C57Bl/6J mice", "details": "bleomycin IP", "description": "Abstract. Purpose. Growth hormone-releasing hormone (GHRH) is a 44-amino acid peptide that regulates growth hormone (GH) secretion. It was tested whether a GHRH receptor (GHRH-R) antagonist, MIA-602, would inhibit bleomycin-induced lung inflammation and/or fibrosis in C57Bl/6J mice. Methods. It was tested whether MIA-602 (5 μg or vehicle given subcutaneously [SC] on days 1-21) would decrease lung inflammation (at day 14) and/or fibrosis (at day 28) in mice treated with intraperitoneal (IP) bleomycin (0.8 units on days 1, 3, 7, 10, 14 and 21). […] Results. Inflammation (histopathologic scores assessed blindly) was less evident in mice treated with MIA-602 for 14 days. […] GHRH-R antagonist increased basal and maximal oxygen consumption of cultured lung fibroblasts. […] Conclusions. MIA-602 reduced lung inflammation and fibrosis due to bleomycin.\nExperimental animals. 8-week old C57Bl/6J male mice (The Jackson Laboratory, Bar Harbor, Me.) were used in these experiments. Mice weighed about 26 grams at the start. Mice were randomly allocated to the experimental groups and housed in identical filter top cages in a ventilated rack. Mice were exposed to a 12-hour light/dark cycle and had free access to standard laboratory chow and water. […]\nHydroxyproline assay. […] Hydroxyproline was measured colorimetrically (560 nm) after hydrolysis using an assay kit (MAK008, Sigma-Aldrich, St. Louis, Mo.). […]"}, "[4]": {"test_system": "bleomycin-induced lung infiltrates", "assay": "Bleomycin mouse model, micro-CT of lungs", "assay_type": "in vivo, C57Bl/6J mice", "details": "bleomycin plus MIA-602 vs vehicle", "description": "Bleomycin and GHRH-R antagonist treatment. Mice were treated with 0.8 units of bleomycin (Bleomycin for Injection USP, Hospira, Lake Forest, Ill.) intraperitoneally (IP) on days 1, 3, 7, 10, 14 and 21 (Collins S, Chan-Li Y, Oh M, Vigeland C, Limjunyawong N, Mitzner W, Powell J D, Horton M R (2016). JCI Insight 1(4):1-13). Mice (randomly assigned) were simultaneously treated subcutaneously (sc) with MIA-602 (5 μg/day) or its vehicle (100 μL/day). MIA-602 was dissolved in DMSO (ACS grade; Sigma-Aldrich) and diluted 1:500 in normal saline for daily sc injection on days 0-21.\nTissue preparations. Mice were killed by CO2 inhalation before any treatment, or on days 14 or 28 for micro-CT scans of lungs and harvesting of lung tissue (Vande Vel de G, Poelmans J, De Langhe E, Hillen A, Vanoirbeek J, Himmelreich U, Lories R (2016). Dis Model Mech 9:91). The right mainstem bronchus was ligated and the right lung removed and frozen at −80° C. for hydroxyproline (HP) assays. The left lung was filled with 10% buffered formalin at […] cm H2O pressure, the bronchus ligated, and the lung fixed in formalin. Fixed lungs were embedded in wax and 5 μm sections stained with hematoxylin and eosin (H&E) or Masson's trichrome stain.\nMicro-CT. Mice in each group were assessed by micro-CT scans (Bruker SkyScan 1176 Low Dose Micro-CT, Knotich, Belgium) of the lungs after CO2 inhalation. […]"}, "[5]": {"test_system": "mouse lung fibroblasts (Mlg 2908)", "assay": "Cellular respiration, Seahorse XF Cell Mito Stress Test", "assay_type": "cell-based", "description": "Lung fibroblasts. Newborn mouse lung fibroblasts (Mlg 2908) were obtained from the American Type Culture Collection, Manassas, Va. and cultured in Eagle's minimal essential medium. Cells were grown in 6-well plates before incubation with 1 or 5 μM MIA-602 or vehicle, RNA isolation, and oxygen consumption measurements.\nCellular respiration. The effects of MIA-602 on mouse lung fibroblast oxygen consumption was measured using the Agilent Seahorse XF Cell Mito Stress Test (Agilent Technologies, Santa Clara, Calif.) (Divakaruni A, Paradyse A, Ferrick D, Murphy A, Jastroch M (2014). Methods in Enzymology 547:309-354). Fibroblasts were incubated with vehicle, 1 or 5 μM MIA-602 for 24 hours before measurement of oxygen consumption. One day before assay 80,000 fibroblasts were seeded into Seahorse 24-well plates (n=6 wells per condition). Basal respiration was established and oligomycin, FCCP and rotenone plus antimycin A were added sequentially to measure ATP production, uncoupled respiration; and, non-mitochondrial oxygen consumption (Wangpaichitr, Wu C, Li Y, Nguyen D, Kandemir H, Shah S, Chen S, Feun L, Prince J, Kuo M, Savaraj N (2017). Oncotarget 8(30):49275-49292)."}}, "note": "Entries after “also recorded” stand apart in the source; their conditions may differ. Non-standard residues stand in square brackets, D forms with d. Residues, ends and D or L forms follow the SMILES beside them. *: point of attachment. Phe(F5) = N[C@@H](Cc1c(F)c(F)c(F)c(F)c1F)C(=O)O; hArg = N=C(N)NCCCC[C@H](N)C(=O)O; 12Ado = NCCCCCCCCCCCC(=O)O; Nle = CCCC[C@H](N)C(=O)O; Orn = NCCC[C@H](N)C(=O)O; Abu = CC[C@H](N)C(=O)O; PhAc = O=C(Cc1ccccc1)*"}
{"smiles": "CCCC[C@H](NC(=O)[C@@H](NC(=O)[C@H](CC(=O)O)NC(=O)[C@H](CCC(N)=O)NC(=O)[C@H](CC(C)C)NC(=O)[C@H](CC(C)C)NC(=O)[C@H](CCCN)NC(=O)[C@H](Cc1c[nH]cn1)NC(=O)[C@H](C)NC(=O)[C@H](CO)NC(=O)[C@H](CC(C)C)NC(=O)[C@H](CCC(N)=O)NC(=O)[C@H](CC)NC(=O)[C@H](CC(C)C)NC(=O)[C@@H](NC(=O)[C@H](CCCN)NC(=O)[C@H](Cc1c[nH]cn1)NC(=O)[C@H](Cc1ccc(OC)cc1)NC(=O)[C@H](CCCCNC(=N)N)NC(=O)[C@H](C)NC(=O)[C@@H](NC(=O)[C@H](Cc1c(F)c(F)c(F)c(F)c1F)NC(=O)[C@@H](NC(=O)[C@H](C)NC(=O)[C@H](CC(=O)O)NC(=O)[C@@H](CCCNC(=N)N)NC(=O)[C@H](Cc1ccc(O)cc1)NC(=O)CCCCCCCCCCCNC(=O)Cc1ccccc1)[C@@H](C)CC)[C@@H](C)O)C(C)C)[C@@H](C)CC)C(=O)N[C@H](CCCNC(=N)N)C(=O)N[C@@H](CCCCNC(=N)N)C(N)=O", "note": "[MIA-602, PhAC-Ada, Tyr D-Arg, Asp, Ala, Ile, 5FPhe, Thr, Ala, Har, Tyr(Me), His, Orn, Val, Leu, Abu, Gin, Leu, Ser, Ala, His, Om, Leu, Leu, Gin, Asp, Ile; Nle, D-Arg, Har NH2, reference compound] ({PhAc-12Ado}-Y[dR]DAI[Phe(F5)]TA[hArg]Y(Me)H[Orn]VL[Abu]QLSAH[Orn]LLQDI[Nle][dR][hArg]-NH2)", "values": [{"measurement": "cellular levels of oxidant stress (in words)", "setting": "[1]", "result": "decreased"}, {"measurement": "signaling pathways in gastric cancer cells (in words)", "setting": "[2]", "result": "downregulates p21 activated kinase and STAT3 and NFκB; also recorded: inhibits signaling pathways, including PAK1-STAT3/NF-κB"}, {"measurement": "lung hydroxyproline (HP) content, change (in words)", "setting": "[3]; 14 days, MIA-602 5 μg/day sc", "result": "did not increase significantly"}, {"measurement": "lung hydroxyproline (HP) content, change (in words)", "setting": "[3]; 28 days, MIA-602 5 μg/day sc days 1-21, right lung", "result": "increased significantly in bleomycin-treated mice that received vehicle, but not in bleomycin-treated mice that received MIA-602; also recorded: No significant increase in HP content"}, {"measurement": "infiltrative densities in lungs, micro-CT (in words)", "setting": "[4]", "result": "less prominent infiltrative densities"}, {"measurement": "basal respiration / basal oxygen consumption (in words)", "setting": "[5]; 5 μM for 24 hours, vs vehicle", "result": "increased"}, {"measurement": "maximal, uncoupled respiration (after FCCP) (in words)", "setting": "[5]; 5 μM for 24 hours, vs vehicle", "result": "increased"}, {"measurement": "spare respiratory capacity (in words)", "setting": "[5]; 5 μM for 24 hours, vs vehicle", "result": "increased"}, {"measurement": "non-mitochondrial respiration (after antimycin A and rotenone) (in words)", "setting": "[5]; 1 and 5 μM for 24 hours", "result": "appeared to increase"}]}
